Consider 26 compounds from patent US10590128B2, “6,7,8,9-tetrahydro-5H-pyrido[2,3-d]azepine dopamine D3 ligands” (Pfizer Inc., priority 2016, dated 2020).

pKi: −log10 of the molar value.

The target in experiment [1] is human dopamine D3 receptor (hD3R) (Homo sapiens, UniProt P35462). Briefly: Human D3 receptor binding assay ([^3H]-7-OH-DPAT). To be noted: CHO cells expressing hD3R, geometric mean of 2-5 determinations unless marked b (single determination), read-out: hD3 in CHO cells Ki. How it is done:
(§1) Human D2 Receptor and Human D3 Receptor Binding Assays:
(§2) These determined ligand and tissue concentrations were utilized in time course studies to determine linearity and equilibrium conditions for binding. […] The hD2R assay buffer contains 50 mM Tris (pH 7.4 @ 37° C.), 100 mM NaCl and 1 mM MgCl2. The hD3R assay buffer consists of 50 mM Tris (pH 7.4 at 37° C.), 120 mM NaCl, 5 mM MgCl2, 5 mM KCl and 2 mM CaCl2. Competitive binding experiments were initiated by the addition of 200 μL of the respective cell homogenate to 96-well plates containing […] test drugs (10 concentrations using ½ log dilutions) and 50 μL of ^3H-radioligand for a final volume of 250 μL. Non-specific binding was determined by radioligand binding in the presence of a saturating concentration of Haldol (10 μM). After the 20 minute incubation at 37° C., assay samples were rapidly filtered through Unifilter-96 GF/B PEI-coated filter plates and rinsed with ice-cold 50 mM Tris buffer (pH 7.4 at 4° C.). […] The IC50 value (concentration at which 50% inhibition of specific binding occurs) was calculated by linear regression of the concentration-response data in ActivityBase. Ki values were then calculated according to the Cheng-Prusoff equation:
(§3) [formula] where [L]=concentration of free radioligand and Kd=dissociation constant of radioligand for D3 receptor or D2 receptor.

Experiment [2] has as its target human dopamine D2 receptor (hD2R) (Homo sapiens, UniProt P14416). Briefly: Human D2 receptor binding assay ([^3H]-Spiperone). The settings on record: CHO cells expressing hD2R, geometric mean of 2-5 determinations unless marked b (single determination). The procedure: as §1, §2, §3

Usually pKi stands for −log10 of the Ki, conventionally taken in molar units.

human dopamine D2 receptor (hD2R), sequence (P14416 whole entry): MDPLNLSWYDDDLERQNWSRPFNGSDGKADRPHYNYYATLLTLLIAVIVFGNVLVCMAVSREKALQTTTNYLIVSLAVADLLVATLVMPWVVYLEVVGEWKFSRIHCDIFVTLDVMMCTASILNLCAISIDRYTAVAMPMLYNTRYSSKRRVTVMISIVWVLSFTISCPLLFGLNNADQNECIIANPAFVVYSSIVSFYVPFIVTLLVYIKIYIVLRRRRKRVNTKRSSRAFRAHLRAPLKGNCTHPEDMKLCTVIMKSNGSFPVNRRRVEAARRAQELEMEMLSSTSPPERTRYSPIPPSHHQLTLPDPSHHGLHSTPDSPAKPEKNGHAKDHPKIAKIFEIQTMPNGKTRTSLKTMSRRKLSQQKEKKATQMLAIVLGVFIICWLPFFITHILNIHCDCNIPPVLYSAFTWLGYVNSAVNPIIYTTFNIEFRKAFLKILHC
human dopamine D3 receptor (hD3R), sequence (P35462 whole entry): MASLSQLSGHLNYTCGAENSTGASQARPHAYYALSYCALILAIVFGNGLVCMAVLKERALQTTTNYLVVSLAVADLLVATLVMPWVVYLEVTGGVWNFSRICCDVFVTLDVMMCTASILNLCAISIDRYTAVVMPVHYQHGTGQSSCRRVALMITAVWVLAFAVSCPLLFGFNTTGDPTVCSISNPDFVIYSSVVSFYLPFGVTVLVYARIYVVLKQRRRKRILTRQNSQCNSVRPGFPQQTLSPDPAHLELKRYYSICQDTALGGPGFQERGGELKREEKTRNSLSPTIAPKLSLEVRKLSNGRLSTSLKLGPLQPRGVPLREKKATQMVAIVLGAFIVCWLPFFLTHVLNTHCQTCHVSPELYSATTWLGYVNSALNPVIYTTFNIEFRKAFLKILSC

As to `COc1nc2c(cc1NS(=O)(=O)c1ccc([C@]3(F)C[C@H](C)C3)nc1)CCN(C)CC2` [Example 136, 6-(trans-1-fluoro-3-methylcyclobutyl)-N-(2-methoxy-7-methyl-6,7,8,9-tetrahydro-5H-pyrido[2,3-d]azepin-3-yl)pyridine-3-sulfonamide], the pKi in experiment [1] was 8.13; in experiment [2], 5.91.

`CCOC1CC(c2ccc(S(=O)(=O)Nc3cc4c(nc3OC)CCN(CC)CC4)cc2)C1` (stereo not drawn) [Example 121, 4-(trans-3-ethoxycycyclobutyl)-N-(7-ethyl-2-methoxy-6,7,8,9-tetrahydro-5H-pyrido[2,3-d]azepin-3-yl)benzenesulfonamide]: the values for the pKi in experiment [1] and in experiment [2] were 8.60 and 7.40, respectively.

Regarding `CCN1CCc2cc(NS(=O)(=O)c3ccc(C4CCCC4)nc3)c(OC)nc2CC1` [Example 102, 6-cyclopentyl-N-(7-ethyl-2-methoxy-6,7,8,9-tetrahydro-5H-pyrido[2,3-d]azepin-3-yl)pyridine-3-sulfonamide], the pKi in experiment [1] was 8.55; in experiment [2], 6.49.

`CCO[C@H]1C[C@H](c2ccc(S(=O)(=O)Nc3cc4c(nc3OC)CCN(C)CC4)cn2)C1` [Example 134, 6-(trans-3-ethoxycyclobutyl)-N-(2-methoxy-7-methyl-6,7,8,9-tetrahydro-5H-pyrido[2,3-d]azepin-3-yl)pyridine-3-sulfonamide]: the pKi was 7.83 in experiment [1] and 5.74 in experiment [2].

With `COc1nc2c(cc1NS(=O)(=O)c1ccc(OC3CCCC3)nc1)CCN(C)CC2` [Example 15, 6-(cyclopentyloxy)-N-(2-methoxy-7-methyl-6,7,8,9-tetrahydro-5H-pyrido[2,3-d]azepin-3-yl)pyridine-3-sulfonamide], the pKi is 9.15 in experiment [1] and 7.88 in experiment [2].

`CCCN1CCc2cc(NS(=O)(=O)c3ccc(C)cc3)c(OC)nc2CC1` [Example 26, N-(2-methoxy-7-propyl-6,7,8,9-tetrahydro-5H-pyrido[2,3-d]azepin-3-yl)-4-methylbenzenesulfonamide]: the pKi in experiment [1] was 8.61; in experiment [2], 6.28.

Consider `CCN1CCc2cc(NS(=O)(=O)c3ccc(C)cc3C)c(OC)nc2CC1` [Example 65, N-(7-ethyl-2-methoxy-6,7,8,9-tetrahydro-5H-pyrido[2,3-d]azepin-3-yl)-2,4-dimethylbenzenesulfonamide], for which the pKi in experiment [1] is 8.81; in experiment [2], 6.56.

On to `COc1nc2c(cc1NS(=O)(=O)c1ccc(C3CCOC(C)(C)C3)cc1)CCN(C)CC2` (single isomer, unassigned) [Example 87], for which the pKi in experiment [1] was 8.44; in experiment [2], 6.56.

In the case of `COc1nc2c(cc1NS(=O)(=O)c1ccc(C3CCCCO3)cc1)CCN(C)CC2` (stereo not shown) [Example 6, N-(2-Methoxy-7-methyl-6,7,8,9-tetrahydro-5H-pyrido[2,3-d]azepin-3-yl)-4-(tetrahydro-2H-pyran-2-yl)benzenesulfonamide], the values for the pKi in experiment [1] and in experiment [2] were 9.06 and 7.26, respectively.

With `COc1nc2c(cc1NS(=O)(=O)c1ccc(OC3CCOC3)nc1)CCN(C)CC2` (stereo not shown) [Example 97, N-(2-methoxy-7-methyl-6,7,8,9-tetrahydro-5H-pyrido[2,3-d]azepin-3-yl)-6-(tetrahydrofuran-3-yloxy)pyridine-3-sulfonamide], the pKi in experiment [1] was 8.23; in experiment [2], 6.01.

For `COc1nc2c(cc1NS(=O)(=O)c1ccc(C3CC(F)(F)CCO3)cc1)CCN(C)CC2` (racemic) [Example 40, 4-(4,4-difluorotetrahydro-2H-pyran-2-yl)-N-(2-methoxy-7-methyl-6,7,8,9-tetrahydro-5H-pyrido[2,3-d]azepin-3-yl)benzenesulfonamide], the pKi in experiment [1] was 8.59; in experiment [2], 6.87.

Take `COc1nc2c(cc1NS(=O)(=O)c1ccc(C3CCCOC3)cc1)CCN(C)CC2` (racemic) [Example 77, N-(2-methoxy-7-methyl-6,7,8,9-tetrahydro-5H-pyrido[2,3-d]azepin-3-yl)-4-(tetrahydro-2H-pyran-3-yl)benzenesulfonamide]: the negative logarithm of the Ki (pKi) in experiment [1] is 8.34; in experiment [2], 6.26.

Take `CCN1CCc2cc(NS(=O)(=O)c3ccc(OC4CCCC4)nc3)c(OC)nc2CC1` [Example 2, 6-(Cyclopentyloxy)-N-(7-ethyl-2-methoxy-6,7,8,9-tetrahydro-5H-pyrido[2,3-d]azepin-3-yl)pyridine-3-sulfonamide]: the pKi in experiment [1] was 9.07; in experiment [2], 7.12.

In the case of `Cc1ccc(S(=O)(=O)Nc2cc3c(nc2C(F)(F)F)CCN(C)CC3)cc1` [Example 139, 4-methyl-N-[7-methyl-2-(trifluoromethyl)-6,7,8,9-tetrahydro-5H-pyrido[2,3-d]azepin-3-yl]benzenesulfonamide], the pKi was 6.15 in experiment [1] and less than 5.37 in experiment [2].

As for `CCN1CCc2cc(NS(=O)(=O)c3ccc(OC4CCCC4)cc3)c(OC)nc2CC1` [Example 63, 4-(cyclopentyloxy)-N-(7-ethyl-2-methoxy-6,7,8,9-tetrahydro-5H-pyrido[2,3-d]azepin-3-yl)benzenesulfonamide], the pKi in experiment [1] is 9.49; in experiment [2] it was 7.94.

For `COc1nc2c(cc1NS(=O)(=O)c1ccc(C3(C)CCOCC3)cc1)CCN(C)CC2` [Example 79, N-(2-methoxy-7-methyl-6,7,8,9-tetrahydro-5H-pyrido[2,3-d]azepin-3-yl)-4-(4-methyltetrahydro-2H-pyran-4-yl)benzenesulfonamide], the pKi in experiment [1] was 8.44; in experiment [2], 6.39.

Turning to `COc1nc2c(cc1NS(=O)(=O)c1ccc(C3(F)CCOCC3)cc1)CCN(C)CC2` [Example 80, 4-(4-fluorotetrahydro-2H-pyran-4-yl)-N-(2-methoxy-7-methyl-6,7,8,9-tetrahydro-5H-pyrido[2,3-d]azepin-3-yl)benzenesulfonamide], the pKi in experiment [1] is 8.75; in experiment [2], 6.62.

As for `CCN1CCc2cc(NS(=O)(=O)c3ccc(C4(C)CCOCC4)cc3)c(OC)nc2CC1` [Example 69, N-(7-ethyl-2-methoxy-6,7,8,9-tetrahydro-5H-pyrido[2,3-d]azepin-3-yl)-4-(4-methyltetrahydro-2H-pyran-4-yl)benzenesulfonamide], the pKi in experiment [1] is 8.32; in experiment [2], 6.41.

For `COc1nc2c(cc1NS(=O)(=O)c1ccc(C)cc1)CCN(CCCF)CC2` [Example 115, N-[7-(3-fluoropropyl)-2-methoxy-6,7,8,9-tetrahydro-5H-pyrido[2,3-d]azepin-3-yl]-4-methylbenzenesulfonamide], the pKi in experiment [1] was 7.83; in experiment [2] it was 6.67.

Take `COc1nc2c(cc1NS(=O)(=O)c1ccc(C3CCOC(C)C3)cc1)CCN(C)CC2` (single isomer, unassigned) [Example 85]: the results for the pKi in experiment [1] and in experiment [2] were 8.49 and 6.52, respectively.

Regarding `CCN1CCc2cc(NS(=O)(=O)c3ccc(C4CCOCC4)cc3)c(OC)nc2CC1` [Example 57, N-(7-ethyl-2-methoxy-6,7,8,9-tetrahydro-5H-pyrido[2,3-d]azepin-3-yl)-4-(tetrahydro-2H-pyran-4-yl)benzenesulfonamide], the values for the pKi in experiment [1] and in experiment [2] were 8.50 and 6.64, respectively.

In the case of `CCN1CCc2cc(NS(=O)(=O)c3ccc(OC(F)F)cc3)c(OC)nc2CC1` [Example 59, 4-(difluoromethoxy)-N-(7-ethyl-2-methoxy-6,7,8,9-tetrahydro-5H-pyrido[2,3-d]azepin-3-yl)benzenesulfonamide], the pKi is 7.94 in experiment [1] and 5.64 in experiment [2].

Turning to `CCN1CCc2cc(NS(=O)(=O)c3ccc([C@H]4CCCCO4)c(C)c3)c(OC)nc2CC1` [Example 107, N-(7-ethyl-2-methoxy-6,7,8,9-tetrahydro-5H-pyrido[2,3-d]azepin-3-yl)-3-methyl-4-[(2R)-tetrahydro-2H-pyran-2-yl]benzenesulfonamide], the pKi is 9.34 in experiment [1] and 8.14 in experiment [2].

Turning to `COc1nc2c(cc1NS(=O)(=O)c1ccc(C3CC(F)CCO3)cc1)CCN(C)CC2` (single isomer, unassigned; diastereomer-2) [Example 109, 4-(4-fluorotetrahydro-2H-pyran-2-yl)-N-(2-methoxy-7-methyl-6,7,8,9-tetrahydro-5H-pyrido[2,3-d]azepin-3-yl)benzenesulfonamide, diastereomer-2], the pKi in experiment [1] is 8.50; in experiment [2], 6.68.

Regarding `COc1nc2c(cc1NS(=O)(=O)c1ccc(OC3CCCC3)nc1)CCN(CCCF)CC2` [Example 122, 6-(cyclopentyloxy)-N-[7-(3-fluoropropyl)-2-methoxy-6,7,8,9-tetrahydro-5H-pyrido[2,3-d]azepin-3-yl]pyridine-3-sulfonamide], the figures for the pKi in experiment [1] and in experiment [2] were 8.34 and 6.89, respectively.

For the compound `COc1nc2c(cc1NS(=O)(=O)c1ccc(C3CCC3)nc1)CCN(C)CC2` [Example 113, 6-cyclobutyl-N-(2-methoxy-7-methyl-6,7,8,9-tetrahydro-5H-pyrido[2,3-d]azepin-3-yl)pyridine-3-sulfonamide], the pKi in experiment [1] was 8.40; in experiment [2], 6.84.
